Active and inactive are the calls of the source. The rule behind the calls is not given here.
What was measured:
[1] = molecular target: T1, RAC-alpha serine/threonine-protein kinase (Homo sapiens, UniProt P31749); assay: Antagonist activity at human AKT1-PH domain (1 to 121 residues) assessed as reduction of AKT1-PH interaction with PC/PE/PS/PI(3,4,5)P3 at 50 uM after 30 mins by competitive SPR analysis relative to control
[2] = molecular target: T1, RAC-alpha serine/threonine-protein kinase; assay: Antagonist activity at human AKT1-PH domain (1 to 121 residues) assessed as reduction of AKT1-PH interaction with PC/PE/PS/PI(3,4,5)P3 after 30 mins by competitive SPR analysis
[3] = Cytotoxicity against human MDA-MB-231 cells assessed as inhibition of cell proliferation at 1 to 100 uM after 48 hrs by MTT assay; type: cell-based; details: read-out: %max
[4] = Effect on membrane fluidity in PC/PE/PS liposome assessed as DPH probe anisotropy changes at 15 uM incubated for 30 mins by fluorescence anisotropic analysis; type: ADME; details: artificial membrane, 0.5 h
[5] = Effect on membrane fluidity in PC/PE/PS liposome assessed as NBD-PE probe anisotropy changes at 15 uM incubated for 30 mins by fluorescence anisotropic analysis; type: ADME; details: artificial membrane, 0.5 h
[6] = molecular target: T2, Cytohesin-3 (Mus musculus) (UniProt O08967); assay: Antagonist activity at mouse GRP1-PH domain (1 to 127 residues) assessed as reduction in PI(3,4,5)P3/GRP1-PH interaction at 50 uM after 30 mins by competitive SPR analysis relative to control
T2 sequence (whole entry): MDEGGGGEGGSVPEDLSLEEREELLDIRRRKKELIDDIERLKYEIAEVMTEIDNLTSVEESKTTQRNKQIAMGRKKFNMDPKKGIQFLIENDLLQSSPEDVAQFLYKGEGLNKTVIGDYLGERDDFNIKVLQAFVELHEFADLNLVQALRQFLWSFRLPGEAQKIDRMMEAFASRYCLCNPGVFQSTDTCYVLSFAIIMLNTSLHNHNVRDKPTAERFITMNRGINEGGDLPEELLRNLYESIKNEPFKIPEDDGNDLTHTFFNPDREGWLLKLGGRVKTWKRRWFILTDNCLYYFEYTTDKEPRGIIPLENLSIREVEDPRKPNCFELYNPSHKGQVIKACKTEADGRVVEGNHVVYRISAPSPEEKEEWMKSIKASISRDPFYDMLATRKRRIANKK

[7] = molecular target: T3, Tyrosine-protein kinase BTK (Homo sapiens, UniProt Q06187); assay: Antagonist activity at human BTK-PH domain (2 to 170 residues) assessed as reduction in PI(3,4,5)P3/BTK-PH interaction at 50 uM after 30 mins by competitive SPR analysis relative to control
T3 sequence (Q06187 whole entry, the tested form may be a part): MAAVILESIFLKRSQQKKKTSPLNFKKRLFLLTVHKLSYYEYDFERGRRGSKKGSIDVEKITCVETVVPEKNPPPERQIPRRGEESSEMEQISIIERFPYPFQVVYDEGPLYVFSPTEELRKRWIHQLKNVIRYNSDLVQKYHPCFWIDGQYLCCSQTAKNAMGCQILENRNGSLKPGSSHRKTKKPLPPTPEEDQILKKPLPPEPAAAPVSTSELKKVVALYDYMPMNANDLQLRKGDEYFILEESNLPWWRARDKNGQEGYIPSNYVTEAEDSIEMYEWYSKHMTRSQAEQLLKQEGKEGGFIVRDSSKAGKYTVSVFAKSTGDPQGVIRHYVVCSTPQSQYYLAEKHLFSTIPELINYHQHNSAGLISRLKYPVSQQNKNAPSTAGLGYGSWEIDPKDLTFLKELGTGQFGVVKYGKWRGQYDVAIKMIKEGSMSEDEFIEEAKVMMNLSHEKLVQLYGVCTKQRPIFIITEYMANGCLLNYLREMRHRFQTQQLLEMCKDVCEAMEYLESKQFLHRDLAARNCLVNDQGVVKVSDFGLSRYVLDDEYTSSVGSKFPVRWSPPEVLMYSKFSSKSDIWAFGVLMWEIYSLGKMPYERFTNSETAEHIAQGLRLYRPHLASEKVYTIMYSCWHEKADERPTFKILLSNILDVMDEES

[8] = molecular target: T4, Cytohesin-3 (Mus musculus, UniProt O08967); assay: Antagonist activity at mouse GRP1-PH domain (1 to 127 residues) assessed as reduction in PI(3,4,5)P3/GRP1-PH interaction after 30 mins by competitive SPR analysis
T4 sequence (O08967 whole entry): T2 sequence (whole entry)

[9] = molecular target: T3, Tyrosine-protein kinase BTK; assay: Antagonist activity at human BTK-PH domain (2 to 170 residues) assessed as reduction in PI(3,4,5)P3/BTK-PH interaction after 30 mins by competitive SPR analysis
[10] = molecular target: Pleckstrin homology domain-containing family A member 1 (Homo sapiens, UniProt Q9HB21); assay: Antagonist activity at human Tapp1-PH domain (180 to 305 residues) assessed as reduction in PI(3,4)P2/Tapp1-PH interaction after 30 mins by competitive SPR analysis
Sequence of Pleckstrin homology domain-containing family A member 1 (Q9HB21 whole entry, the tested form may be a part): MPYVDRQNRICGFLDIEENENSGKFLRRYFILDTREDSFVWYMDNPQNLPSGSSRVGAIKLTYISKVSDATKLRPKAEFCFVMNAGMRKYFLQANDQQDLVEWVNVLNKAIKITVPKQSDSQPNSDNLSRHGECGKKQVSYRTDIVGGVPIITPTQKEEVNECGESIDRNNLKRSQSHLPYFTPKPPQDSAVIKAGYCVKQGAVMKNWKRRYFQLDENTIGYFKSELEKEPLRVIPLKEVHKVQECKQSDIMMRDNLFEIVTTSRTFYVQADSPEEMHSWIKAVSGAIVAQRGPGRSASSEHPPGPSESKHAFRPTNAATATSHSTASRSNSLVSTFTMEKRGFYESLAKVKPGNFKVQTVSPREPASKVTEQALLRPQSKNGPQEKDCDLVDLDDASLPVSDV

[11] = molecular target: T1, RAC-alpha serine/threonine-protein kinase; assay: Antagonist activity at human AKT1-PH domain (1 to 121 residues) assessed as reduction in PI(3,4,5)P3/AKT1-PH interaction by FRET analysis
[12] = molecular target: T1, RAC-alpha serine/threonine-protein kinase; assay: Antagonist activity at GST-tagged human AKT1-PH domain (1 to 121 residues) assessed as reduction in PC/PE/PS/PI(3,4,5)P3/AKT1-PH interaction at 50 uM by liposome pull-down assay
[13] = Cytotoxicity against human MDA-MB-231 cells assessed as inhibition of cell proliferation at 100 uM after 48 hrs by MTT assay; type: cell-based
[14] = Effect on surface charge of PC/PE/PS/PI(3,4,5)P3 liposome by measuring zeta-potential by light scattering spectrometric analysis; type: physicochemical; details: artificial membrane
[15] = molecular target: T1, RAC-alpha serine/threonine-protein kinase; assay: Induction of human AKT1-PH aggregration assessed as mean hydrodynamic diameter after 10 mins dynamic light scattering assay
[16] = molecular target: T1, RAC-alpha serine/threonine-protein kinase; assay: Binding affinity to human AKT1-PH domain assessed as change in beta-sheet content at 1:3 molar ratio of protein to compound by CD spectra analysis
[17] = molecular target: T1, RAC-alpha serine/threonine-protein kinase; assay: Binding affinity to human AKT1-PH domain assessed as enthalpy change by isothermal titration calorimetric analysis
[18] = molecular target: T1, RAC-alpha serine/threonine-protein kinase; assay: Binding affinity to human AKT1-PH domain assessed as entropy change by isothermal titration calorimetric analysis
[19] = molecular target: T5, 1-phosphatidylinositol 4,5-bisphosphate phosphodiesterase delta-1 (Rattus norvegicus, UniProt P10688); assay: Antagonist activity at rat PLCdelta1-PH domain assessed as reduction in PI(4,5)P2/PLCdelta1-PH interaction after 30 mins by competitive SPR analysis
T5 sequence (P10688 whole entry): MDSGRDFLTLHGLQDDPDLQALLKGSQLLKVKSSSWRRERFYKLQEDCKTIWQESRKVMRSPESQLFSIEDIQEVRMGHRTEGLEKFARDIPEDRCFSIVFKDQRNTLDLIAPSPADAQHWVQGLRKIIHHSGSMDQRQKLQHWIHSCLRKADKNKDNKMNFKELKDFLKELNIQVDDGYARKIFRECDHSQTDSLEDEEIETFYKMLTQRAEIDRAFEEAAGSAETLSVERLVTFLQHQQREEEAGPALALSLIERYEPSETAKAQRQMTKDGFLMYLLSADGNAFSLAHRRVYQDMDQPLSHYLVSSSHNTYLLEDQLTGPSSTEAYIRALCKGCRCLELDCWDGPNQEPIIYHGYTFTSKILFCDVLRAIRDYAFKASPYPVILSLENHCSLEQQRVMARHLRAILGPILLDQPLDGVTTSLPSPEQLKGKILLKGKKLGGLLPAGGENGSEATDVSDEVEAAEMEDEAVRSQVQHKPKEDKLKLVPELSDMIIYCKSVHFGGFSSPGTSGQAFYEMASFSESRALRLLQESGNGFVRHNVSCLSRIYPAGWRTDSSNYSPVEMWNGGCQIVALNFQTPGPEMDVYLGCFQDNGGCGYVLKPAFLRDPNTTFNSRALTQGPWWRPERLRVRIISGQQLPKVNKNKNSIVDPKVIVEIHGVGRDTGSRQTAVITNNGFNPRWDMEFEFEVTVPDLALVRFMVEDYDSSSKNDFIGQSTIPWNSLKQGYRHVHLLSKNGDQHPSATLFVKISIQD

[20] = molecular target: T1, RAC-alpha serine/threonine-protein kinase; assay: Inhibition of AKT1 phosphorylation at Thr-308 in human MDA-MB-231 cells at 25 uM after 48 hrs by immunoblot analysis; type: cell-based

T1 sequence (P31749 whole entry, the tested form may be a part): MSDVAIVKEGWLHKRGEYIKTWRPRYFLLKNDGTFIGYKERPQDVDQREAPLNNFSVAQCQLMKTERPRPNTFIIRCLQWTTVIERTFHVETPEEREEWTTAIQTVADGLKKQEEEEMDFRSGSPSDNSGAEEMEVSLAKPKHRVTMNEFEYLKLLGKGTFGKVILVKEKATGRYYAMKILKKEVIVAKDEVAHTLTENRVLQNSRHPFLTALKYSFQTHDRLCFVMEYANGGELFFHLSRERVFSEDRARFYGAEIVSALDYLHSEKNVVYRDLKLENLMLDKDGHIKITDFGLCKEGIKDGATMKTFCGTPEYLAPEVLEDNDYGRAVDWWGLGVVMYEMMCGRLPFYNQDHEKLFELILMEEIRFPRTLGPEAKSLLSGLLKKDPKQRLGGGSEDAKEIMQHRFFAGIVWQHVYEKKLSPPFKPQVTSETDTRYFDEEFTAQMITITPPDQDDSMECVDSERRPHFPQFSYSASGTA

Which inhibition [1] does the source give for `N=C(N/C(=N/O)c1nonc1N)c1ccccc1Br` here?
Its inhibition is 80%.

What about the IC50 [2] of the same compound?
The IC50 was 16.4 µM.

And the Emax at 48 h [3]?
Its Emax at 48 h is 20%.

And the Activity [4]?
The Activity was “Not Active”.

And the Activity [5]?
Its Activity is “Active”.

For `N=C(N)NC(=N)N/C(=N/O)c1nonc1N`, which inhibition [1] is on record?
The inhibition was 95%.

What about the inhibition [6] of the same compound?
Its inhibition is 56%.

And the inhibition [7]?
Its inhibition is 40%.

And the IC50 [2]?
Its IC50 is 1.85 µM.

And the inhibition [2]?
Its inhibition is “Dose-dependent effect”.

What about the IC50 [8] of the same compound?
Its IC50 is 24.9 µM.

And the IC50 [9]?
Its IC50 is 10.9 µM.

And the IC50 [10]?
The IC50 was 28 µM.

What about the inhibition [11] of the same compound?
The inhibition was “Dose-dependent effect”.

What about the inhibition [12] of the same compound?
Its inhibition is “Active”.

And the inhibition at 48 h, 100 µM [13]?
Its inhibition at 48 h, 100 µM is 10%.

What about the Activity [4] of the same compound?
Its Activity is “Not Active”.

What about the Activity [5] of the same compound?
The Activity was “Active”.

What about the Activity [14] of the same compound?
The Activity was “Not Active”.

And the Activity [15]?
Its Activity is 190 nm.

What about the Activity [16] of the same compound?
The Activity was “Active”.

What about the Activity [17] of the same compound?
The Activity was “Active”.

What about the Activity [18] of the same compound?
Its Activity is “Active”.

What about the IC50 [19] of the same compound?
The IC50 was 54 µM.

For `N=C(N/C(=N/O)c1nonc1N)N1CCCN=C1N`, which inhibition [1] is on record?
Its inhibition is 92%.

What about the inhibition [6] of the same compound?
Its inhibition is 67%.

What about the inhibition [7] of the same compound?
Its inhibition is 11%.

And the IC50 [2]?
The IC50 was 3.23 µM.

And the inhibition [2]?
The inhibition was “Dose-dependent effect”.

And the IC50 [8]?
The IC50 was 11.5 µM.

And the IC50 [9]?
Its IC50 is 46.5 µM.

And the IC50 [10]?
The IC50 was 5 µM.

And the inhibition [11]?
Its inhibition is “Dose-dependent effect”.

What about the inhibition [12] of the same compound?
Its inhibition is “Active”.

And the Emax at 48 h [3]?
The Emax at 48 h was 20%.

And the inhibition [20]?
The inhibition was “Active”.

And the Activity [4]?
The Activity was “Not Active”.

What about the Activity [5] of the same compound?
Its Activity is “Active”.

What about the Activity [14] of the same compound?
The Activity was “Not Active”.

What about the Activity [15] of the same compound?
Its Activity is 190 nm.

And the Activity [16]?
The Activity was “Active”.

What about the Activity [17] of the same compound?
Its Activity is “Active”.

What about the Activity [18] of the same compound?
The Activity was “Active”.

And the IC50 [19]?
The IC50 was 28 µM.

Which results are given for `N=C(N/C(=N/O)c1nonc1N)c1ccccc1`?
inhibition [1]: 54%; inhibition [6]: 55%; IC50 [2]: 7.19 µM; IC50 [8]: 11.5 µM; Emax at 48 h [3]: 20%; Activity [4]: Not Active; Activity [5]: Active

For `N=C(N/C(=N/O)c1nonc1N)c1ccccc1N`, which inhibition [1] is on record?
Its inhibition is 74%.

And the inhibition [6]?
The inhibition was 59%.

What about the inhibition [7] of the same compound?
The inhibition was 79%.

And the IC50 [2]?
The IC50 was 8.61 µM.

And the IC50 [8]?
The IC50 was 16.6 µM.

What about the IC50 [9] of the same compound?
Its IC50 is 3.18 µM.

And the Emax at 48 h [3]?
The Emax at 48 h was 20%.

What about the Activity [4] of the same compound?
Its Activity is “Not Active”.

What about the Activity [5] of the same compound?
Its Activity is “Active”.

— ChEMBL document CHEMBL3763051, “Inhibition of phosphatidylinositol-3,4,5-trisphosphate binding to the AKT pleckstrin homology domain by 4-amino-1,2,5-oxadiazole derivatives” (Medchemcomm, 2015)
